Conditions: payload material itself
From the text: By selection of a carrier which is also soluble in both DMSO and one of water, ethanol and PPG (for example PVP/HPC) it is possible to obtain a nano-disperse form of either payload material in the carrier, which can be “dissolved” in water, ethanol or PPG.

Structure (SMILES): COc1cc(C=O)cc(-c2cc(C=O)cc(OC)c2O)c1O [divanillin]
- solubility in DMSO: soluble
- solubility in water, ethanol and poly-propylene glycol: insoluble

Reference: patent publication US20120134940A1, “NANODISPERSIONS” (priority 2006, published 2012)
